Assay results published in patent US8211909B2, “Treatment of antibiotic-resistant bacteria infection” (TaiGen Biotechnology Co., Ltd., priority 2008, dated 2012).
Values after ≈ are worked out from the molar mass of the structure shown. Like-named read-outs stand apart in the source and are kept apart here. One block for each molecule: values may come before it.

Key:
[1] = test system: Methicillin-resistant Staphylococcus aureus (MRSA) isolates; assay: MIC by broth microdilution (CLSI) against CAN-ICU MRSA isolates; assay type: cell-based; details: Staphylococcus aureus
Description: MRSA isolates (n=193) were obtained as part of the Canadian National Intensive Care Unit (CAN-ICU) Study. 19 medical centers from all regions of Canada with active ICUs participated in the CAN-ICU study included. They were requested to only obtain “clinically significant” specimens from patients with a presumed infectious disease. Surveillance swabs, eye, ear, nose and throat swabs were excluded. Anaerobic organisms and fungal organisms were also excluded.
From September 2005-June 2006 (inclusive), each center collected a maximum of 300 consecutive pathogens isolated from blood, urine, tissue/wound, and respiratory specimens (one pathogen per cultured site per patient) of ICU patients. These isolates were shipped to the reference laboratory (Health Sciences Centre, Winnipeg, Canada) on Amies charcoal swabs, subcultured in appropriate media, and stocked in skim milk at −80° C.
All isolates underwent mecA PCR, as well as molecular characterization (including PVL analysis and fingerprinting), as previously described, to assess whether they were community-associated or healthcare-associated (Christianson et al., J Clin Microbiol. 2007, 45 (6): 1904-11; Mulvey et al., J Clin. Microbiol. 2001, 39(10): 3481-5; Mulvey et al., Emerg Infect Dis. 2005,11(6): 844-50; Oliveira et al., Antimicrob Agents Chemother. 2002, 46(7): 2155-61). The isolates were also subtyped using pulsed-field gel electrophoresis (PFGE) following the Canadian standardized protocol as previously described (Mulvey et al., J Clin Microbiol. 2001, 39(10): 3481-5). Their PFGE fingerprints thus obtained were analyzed with BioNumerics v3.5 (Applied Maths St. Marten-Latem, Belgium) using a position tolerance of 1.0 and an optimization of 1.0. Strain relatedness was determined as previously described (Tenover et al., 1995). The fingerprints of the isolates were compared to the national MRSA fingerprint database and were grouped into one of 10 Canadian epidemic MRSA (CMRSA-1, CMRSA-2, etc) as previously described (Mulvey et al., Emerg Infect Dis. 2005,11(6):844-50).
Compound 1 and other antibiotics were tested for their inhibitory activity against the MRSA isolates using the broth microdilution guidelines as stipulated by the Clinical and Laboratory Standards Institute.

[2] = test system: Staphylococcus aureus strains (MRSA, hVISA, VISA, VRSA, quinolone-resistant MRSA); assay: MIC by agar dilution against Staphylococcal strains (MRSA, hVISA, VISA, VRSA, quinolone-resistant MRSA); assay type: cell-based
Experimental: Compound 1 was tested for its inhibitory effect against 26 Methicillin-resistant Staphylococcus aureus (MRSA) strains, 2 hetero-Vancomycin intermediate Staphylococcus aureus (hVISA) strains, 24 Vancomycin-intermediate Staphylococcus aureus (VISA) strains, 5 Vancomycin-resistant Staphylococcus aureus (VRSA) strains, and 31 quinolone-resistant Vancomycin-susceptibale MRSA strains with defined mutations in QRDR. These mutations were determined by sequencing analysis of the QRDR (gyrA, gyrB, grlA, and grlB). Efflux testing was performed by the reserpine method (Brenwald, et al., Antimicrob. Agents Chemother. 1998, 42: 2032-2035).

H. pylori isolates = assay: MIC by agar dilution against 200 H. pylori isolates (Taiwan); assay type: cell-based, Helicobacter pylori; details: for share of isolates resistant: 200 H. pylori isolates, resistance: amoxicillin MICs≧0.5, clarithromycin ≧1, metronidazole ≧8, ciprofloxacin ≧1, levofloxacin ≧1 μg/mL
Experimental: MICs were determined using the agar dilution methods recommended by the Clinical and Laboratory Standards Institute (CLSI-M100-S18).

[3] = Staphylococcus aureus, MRSA (26)
[4] = Staphylococcus aureus, Quinolone-resistant MRSA (31)
[5] = Staphylococcus aureus, hVISA(2) + VISA (24) + VRSA (5)
[6] = Staphylococcus aureus, read-out: MIC Range, MRSA (26)
[7] = Staphylococcus aureus, read-out: MIC Range, Quinolone-resistant MRSA (31)
[8] = Staphylococcus aureus, read-out: MIC Range, hVISA(2) + VISA (24) + VRSA (5)
[9] = Helicobacter pylori, 200 isolates of H. pylori
[10] = hVISA(2) + VISA (24) + VRSA (5)

- MIC50 ([1]; MRSA (n = 193), read-out: MIC50): 16 µg/mL (≈ 41.7 µM)
- MIC90 ([1]; MRSA (n = 193), read-out: MIC90): > 32 µg/mL
- MIC ([1]; MRSA (n = 193), read-out: MIC Range Max): > 32 µg/mL
- MIC ([1]; MRSA (n = 193), read-out: MIC Range Min): 0.25 µg/mL (≈ 0.652 µM)
Molecule: C[C@@H](O)[C@H]1C(=O)N2C(C(=O)O)=C(S[C@@H]3CN[C@H](C(=O)N(C)C)C3)[C@H](C)[C@H]12 [Meropenem]

Molecule: COc1c(N2C[C@@H]3CCCN[C@@H]3C2)c(F)cc2c(=O)c(C(=O)O)cn(C3CC3)c12 [Moxifloxacin]
- MIC50 [2, 3]: 0.06 µg/mL (≈ 0.149 µM)
- MIC90 [2, 3]: 0.06 µg/mL (≈ 0.149 µM)
- MIC50 [2, 4]: 4 µg/mL (≈ 9.96 µM)
- MIC90 [2, 4]: 8 µg/mL (≈ 19.9 µM)
- MIC50 [2, 5]: 4 µg/mL
- MIC90 [2, 5]: 8 µg/mL
- MIC [2, 6]: 0.03 to 0.25 µg/mL (≈ 0.0747 to 0.623 µM)
- MIC [2, 7]: 1 to 8 µg/mL (≈ 2.49 to 19.9 µM)
- MIC [2, 8]: 0.06 to 8 µg/mL
- MIC50 (H. pylori isolates; [9]): 250 µg/mL (≈ 623 µM)
- MIC90 (H. pylori isolates; [9]): 500 µg/mL (≈ 1250 µM)

Molecule: CN(C)c1cc(NC(=O)CNC(C)(C)C)c(O)c2c1C[C@H]1C[C@H]3[C@H](N(C)C)C(O)=C(C(N)=O)C(=O)[C@@]3(O)C(O)=C1C2=O [Tigecycline]
- MIC50 [2, 3]: 0.25 µg/mL (≈ 0.427 µM)
- MIC90 [2, 3]: 0.5 µg/mL (≈ 0.854 µM)
- MIC50 [2, 4]: 0.12 µg/mL (≈ 0.205 µM)
- MIC90 [2, 4]: 0.25 µg/mL (≈ 0.427 µM)
- MIC50 [2, 5]: 0.25 µg/mL
- MIC90 [2, 5]: 0.5 µg/mL
- MIC [2, 6]: 0.12 to 0.5 µg/mL (≈ 0.205 to 0.854 µM)
- MIC [2, 7]: 0.12 to 0.5 µg/mL (≈ 0.205 to 0.854 µM)
- MIC [2, 8]: 0.06 to 0.5 µg/mL
- MIC50 ([1]; MRSA): 0.25 µg/mL (≈ 0.427 µM)
- MIC90 ([1]; MRSA): 0.5 µg/mL (≈ 0.854 µM)
- MIC50 ([1]; MRSA / USA100): 0.25 µg/mL (≈ 0.427 µM)
- MIC90 ([1]; MRSA / USA100): 0.25 µg/mL (≈ 0.427 µM)
- MIC50 ([1]; MRSA / USA200): 0.5 µg/mL (≈ 0.854 µM)
- MIC90 ([1]; MRSA / USA200): 0.5 µg/mL (≈ 0.854 µM)
- MIC50 ([1]; MRSA / USA300): 0.25 µg/mL (≈ 0.427 µM)
- MIC90 ([1]; MRSA / USA300): 0.5 µg/mL (≈ 0.854 µM)
- MIC50 ([1]; MRSA / USA400): 0.25 µg/mL (≈ 0.427 µM)
- MIC90 ([1]; MRSA / USA400): 0.25 µg/mL (≈ 0.427 µM)
- MIC50 ([1]; MRSA / USA600): 0.25 µg/mL (≈ 0.427 µM)
- MIC90 ([1]; MRSA / USA600): 0.5 µg/mL (≈ 0.854 µM)
- MIC ([1]; MRSA, read-out: MIC Range Max): 0.5 µg/mL (≈ 0.854 µM)
- MIC ([1]; MRSA, read-out: MIC Range Min): 0.12 µg/mL (≈ 0.205 µM)

Molecule: CN[C@H](CC(C)C)C(=O)N[C@H]1C(=O)N[C@@H](CC(N)=O)C(=O)N[C@H]2C(=O)N[C@H]3C(=O)N[C@H](C(=O)N[C@H](C(=O)O)c4cc(O)cc(O)c4-c4cc3ccc4O)[C@H](O)c3ccc(c(Cl)c3)Oc3cc2cc(c3O[C@@H]2O[C@H](CO)[C@@H](O)[C@H](O)[C@H]2O[C@H]2C[C@](C)(N)[C@H](O)[C@H](C)O2)Oc2ccc(cc2Cl)[C@H]1O [Vancomycin]
- MIC50 [2, 3]: 1 µg/mL (≈ 0.69 µM)
- MIC90 [2, 3]: 1 µg/mL (≈ 0.69 µM)
- MIC50 [2, 4]: 1 µg/mL (≈ 0.69 µM)
- MIC90 [2, 4]: 1 µg/mL (≈ 0.69 µM)
- MIC50 [2, 5]: 4 µg/mL
- MIC90 [2, 5]: 32 µg/mL
- MIC [2, 6]: 0.5 to 1 µg/mL (≈ 0.345 to 0.69 µM)
- MIC [2, 7]: 0.5 to 2 µg/mL (≈ 0.345 to 1.38 µM)
- MIC50 ([1]; MRSA): 1 µg/mL (≈ 0.69 µM)
- MIC90 ([1]; MRSA): 1 µg/mL (≈ 0.69 µM)
- MIC50 ([1]; MRSA / USA100): 1 µg/mL (≈ 0.69 µM)
- MIC90 ([1]; MRSA / USA100): 1 µg/mL (≈ 0.69 µM)
- MIC50 ([1]; MRSA / USA200): 0.5 µg/mL (≈ 0.345 µM)
- MIC90 ([1]; MRSA / USA200): 0.5 µg/mL (≈ 0.345 µM)
- MIC50 ([1]; MRSA / USA300): 0.5 µg/mL (≈ 0.345 µM)
- MIC90 ([1]; MRSA / USA300): 0.5 µg/mL (≈ 0.345 µM)
- MIC50 ([1]; MRSA / USA400): 1 µg/mL (≈ 0.69 µM)
- MIC90 ([1]; MRSA / USA400): 1 µg/mL (≈ 0.69 µM)
- MIC50 ([1]; MRSA / USA600): 1 µg/mL (≈ 0.69 µM)
- MIC90 ([1]; MRSA / USA600): 1 µg/mL (≈ 0.69 µM)
- MIC ([1]; MRSA, read-out: MIC Range Max): 1 µg/mL (≈ 0.69 µM)
- MIC ([1]; MRSA, read-out: MIC Range Min): 0.5 µg/mL (≈ 0.345 µM)

Molecule: CC1(C)S[C@@H]2[C@H](NC(=O)[C@H](N)c3ccc(O)cc3)C(=O)N2[C@H]1C(=O)O [amoxicillin]
- share of isolates resistant (H. pylori isolates): 2%

Molecule: Cc1ncc([N+](=O)[O-])n1CCO [metronidazole]
- share of isolates resistant (H. pylori isolates): 29%

Molecule: Teicoplanin
- MIC50 ([2]; MRSA (26)): 0.5 µg/mL
- MIC90 ([2]; MRSA (26)): 1 µg/mL
- MIC Range ([2]; MRSA (26)): 0.5 to 1 µg/mL
- MIC50 ([2]; Quinolone-resistant MRSA (31)): 0.5 µg/mL
- MIC90 ([2]; Quinolone-resistant MRSA (31)): 1 µg/mL
- MIC Range ([2]; Quinolone-resistant MRSA (31)): 0.25 to 2 µg/mL
- MIC50 [2, 10]: 8 µg/mL
- MIC90 [2, 10]: 16 µg/mL
- MIC Range [2, 10]: 1 to 32 µg/mL
